Test system: C57BLKS/J db/db mice
Experiment: 3 months feeding study on muscle mass in db/db mice (NMR muscle mass, body weight, food intake)
Assay type: in vivo
Settings: for effect on muscle loss (in words) / muscle mass increase: db/db mice, 3 months of treatment; for effect on muscle loss (in words) / muscle mass increase / BW (g), change from baseline / Muscle (g), change from baseline: 0.08% of diet; for muscle mass increase: control reduced by 2%; for BW (g), change from baseline / Muscle (g), change from baseline / BW (g), 5 months old mice / Muscle (g), 5 months old mice: male db/db mice, after 3 months of treatment; for BW (g), 5 months old mice / Muscle (g), 5 months old mice: 0.08% of diet as feed-ad-mix; for Muscle (g), 5 months old mice: total muscle mass by NMR
Experimental: The efficacy of resveratrol, EGCG as well as the combination of both compounds on muscle mass was tested in a 3 months feeding study in C57BLKS/J db/db mice (n=20/group). C57BLKS/J db/db mice suffer from severe metabolic disorder due to a defect in the leptin receptor and loss muscle mass as they age. Muscle wasting has been associated with chronic metabolic derangements. Moreover, muscle wasting induced by a variety of means in both rodents and humans results in similar changes in muscle anatomy, cross-sectional area, function, fiber type switching, contractile protein expression, and histology. […] These agents include anabolic steroids, growth hormone, insulin-like growth factor 1, and beta adrenergic agonists. […] Therefore, the rodent model can be used to evaluate the efficacy of compounds inhibiting muscle wasting.
Male db/db mice were obtained from Jackson Laboratory (Bar Harbor, Me., USA). Adult mice at the age of 8 weeks were used in the experiment. Mice were housed individually in plastic cages with bedding and allowed free access to standard rodent food and tap water. The animal rooms were controlled for temperature (24° C.), humidity (55%), and light (12-h light-dark cycle). The animals were randomized into four groups. Resveratrol and EGCG were administered as feed-ad-mix. Corn cellulose (1% of diet) served as a carrier substance for resveratrol and EGCG as well as a placebo when used alone. Group 1 received placebo, group 2 received a diet containing 0.08% of resveratrol; group 3 received a diet containing 0.08% of EGCG; and group 4 received a diet containing 0.08% of resveratrol and 0.08% of EGCG. Body weight and food intake were determined over the course of the study. Total muscle mass was determined by nuclear magnetic resonance (NMR) measurement after 3 months of treatment. There was no difference in food intake between the groups over the study period.

Compound | effect on muscle loss (in words) | muscle mass increase [%] | BW (g), change from baseline [g] | Muscle (g), change from baseline [g] | BW (g), 5 months old mice [g] | Muscle (g), 5 months old mice [g]
Oc1ccc(C=Cc2cc(O)cc(O)c2)cc1 [Resveratrol, resveratrol] | prevents muscle loss | 6 | 3.9 | 1.0 | 34.2 | 17.0
(−)-epigallocatechin gallate [EGCG] | prevents muscle loss | 3 | 1.0 | 0.5 | 31.4 | 16.2

Source: patent US20090163579A1, “Novel use of nutraceutical compositions” (priority 2006, published 2009)
